The values that follow are results of earlier work, collected in patent EP0420232B1, “Water soluble derivatives of glycoside bioflavonoids, processes for their preparation and related pharmaceutical compositions” (EUROPEAN PHARMACY Srl, priority 1989, dated 1991).

For data set [1] the following is noted: background statement.
The conditions of data set [2]: at room temperature; background statement.

On to `COc1ccc(-c2cc(=O)c3c(O)cc(O[C@@H]4O[C@H](CO[C@@H]5O[C@@H](C)[C@H](O)[C@@H](O)[C@H]5O)[C@@H](O)[C@H](O)[C@H]4O)cc3o2)cc1O` [diosmin, 7-ramnoglycoside of 5,7,3'-trihydroxy-4'-methoxyflavone], for which the toxicity result in data set [1] is recorded as “devoid of toxicity”.

On to `C[C@@H]1O[C@@H](OC[C@H]2O[C@@H](Oc3c(-c4ccc(O)c(O)c4)oc4cc(O)cc(O)c4c3=O)[C@H](O)[C@@H](O)[C@@H]2O)[C@H](O)[C@H](O)[C@H]1O` [rutin, 3-rutinoside of 3, 3', 4', 5,7-penthahydroxyflavone], for which, in data set [2], the solubility in water result is “very poorly soluble”. In addition, the toxicity result in data set [1] is on record as “devoid of toxicity”.
